Laboratory results from ChEMBL document CHEMBL5143597, “Design and synthesis of novel spirocyclic carboxylic acids as potent and orally bioavailable DGAT1 inhibitors and their biological evaluation” (Bioorg Med Chem Lett, 2022).
Blank lines part the entries; values can stand above or below the molecule they belong to. Active and inactive are the calls of the source. The rule behind the calls is not given here.

Key:
CYP1A2 = molecular target: T1, CYP1A2 (Homo sapiens, UniProt P05177); experiment: Inhibition of recombinant human CYP1A2 at 25 uM by fluorescence plate reader analysis; format: ADME
T1 sequence (P05177 whole entry): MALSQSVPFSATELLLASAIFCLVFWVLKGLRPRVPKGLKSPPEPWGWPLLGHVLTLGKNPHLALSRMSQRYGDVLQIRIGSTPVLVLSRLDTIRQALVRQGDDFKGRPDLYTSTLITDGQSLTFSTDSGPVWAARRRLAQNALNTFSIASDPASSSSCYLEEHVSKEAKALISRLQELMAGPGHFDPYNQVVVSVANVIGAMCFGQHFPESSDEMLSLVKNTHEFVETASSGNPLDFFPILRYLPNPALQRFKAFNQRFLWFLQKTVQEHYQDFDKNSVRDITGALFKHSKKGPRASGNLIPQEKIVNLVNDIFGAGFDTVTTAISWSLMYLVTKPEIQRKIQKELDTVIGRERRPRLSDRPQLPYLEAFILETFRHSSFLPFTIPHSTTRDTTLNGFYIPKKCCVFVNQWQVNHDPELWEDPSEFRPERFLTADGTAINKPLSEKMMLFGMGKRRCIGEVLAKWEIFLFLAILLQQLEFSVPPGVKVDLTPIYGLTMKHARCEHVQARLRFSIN

CYP3A4 = CYP3A4 (Homo sapiens, UniProt P08684); experiment: Inhibition of recombinant human CYP3A4 at 25 uM by fluorescence plate reader analysis; format: ADME
Sequence of CYP3A4 (P08684 whole entry): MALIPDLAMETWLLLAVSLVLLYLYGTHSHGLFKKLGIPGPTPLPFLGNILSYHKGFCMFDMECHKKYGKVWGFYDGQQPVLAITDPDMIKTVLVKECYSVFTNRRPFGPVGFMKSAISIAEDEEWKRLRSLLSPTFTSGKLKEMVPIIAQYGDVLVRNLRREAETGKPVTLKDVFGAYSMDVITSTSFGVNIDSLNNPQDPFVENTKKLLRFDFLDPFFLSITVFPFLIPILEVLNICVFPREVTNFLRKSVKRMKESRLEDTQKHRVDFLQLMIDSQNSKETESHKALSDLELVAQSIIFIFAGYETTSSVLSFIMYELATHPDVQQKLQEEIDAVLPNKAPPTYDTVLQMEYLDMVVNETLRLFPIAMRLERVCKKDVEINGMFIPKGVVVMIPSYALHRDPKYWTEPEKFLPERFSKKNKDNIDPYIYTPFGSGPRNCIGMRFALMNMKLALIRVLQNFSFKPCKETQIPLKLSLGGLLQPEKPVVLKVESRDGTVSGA

CYP2C9 = CYP2C9 (Homo sapiens, UniProt P11712); experiment: Inhibition of recombinant human CYP2C9 at 25 uM by fluorescence plate reader analysis; format: ADME
Sequence of CYP2C9 (P11712 whole entry): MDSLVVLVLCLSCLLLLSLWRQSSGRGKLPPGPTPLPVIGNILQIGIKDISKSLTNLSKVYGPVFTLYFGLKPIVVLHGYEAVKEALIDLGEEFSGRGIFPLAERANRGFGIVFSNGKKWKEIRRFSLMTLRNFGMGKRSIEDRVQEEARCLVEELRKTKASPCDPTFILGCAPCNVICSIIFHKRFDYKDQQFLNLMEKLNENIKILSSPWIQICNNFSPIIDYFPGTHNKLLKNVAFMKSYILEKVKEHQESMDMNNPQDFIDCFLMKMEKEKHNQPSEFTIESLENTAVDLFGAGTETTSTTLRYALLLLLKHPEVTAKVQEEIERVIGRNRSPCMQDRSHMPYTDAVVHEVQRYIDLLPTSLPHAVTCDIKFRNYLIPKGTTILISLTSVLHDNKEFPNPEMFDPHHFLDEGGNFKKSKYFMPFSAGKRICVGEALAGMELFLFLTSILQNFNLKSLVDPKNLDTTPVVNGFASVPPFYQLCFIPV

Mus musculus [1] = experiment: In vivo inhibition of DGAT1 in C57BL/6 mouse model of acute lipid challenge assessed as reduction in AUC plasma triglyceride level at 3 to 10 mg/kg, po as corn oil bolus by Oral lipid tolerance test relative to control; format: functional, organism-based; details: dose 3-10 mg/kg
Mus musculus [2] = experiment: In vivo inhibition of DGAT1 in C57BL/6 mouse model of acute lipid challenge assessed as reduction in chylomicron derived plasma triglyceride excursion at 3 to 10 mg/kg, po as corn oil bolus by Oral lipid tolerance test relative to control; format: functional, organism-based; details: dose 3-10 mg/kg
[3] = molecular target: T2, Diacylglycerol O-acyltransferase 1 (Homo sapiens, UniProt O75907); experiment: Inhibition of human DGAT1 in serum starved HEK293 cells assessed as inhibition of triglyceride synthesis incubated for 20 mins followed by 13C-addition of 13C-oleic acid pre-complexed with BSA for 120 mins by LC-MS-based mass spectrophotometric analysis; format: cell-based
T2 sequence (O75907 whole entry): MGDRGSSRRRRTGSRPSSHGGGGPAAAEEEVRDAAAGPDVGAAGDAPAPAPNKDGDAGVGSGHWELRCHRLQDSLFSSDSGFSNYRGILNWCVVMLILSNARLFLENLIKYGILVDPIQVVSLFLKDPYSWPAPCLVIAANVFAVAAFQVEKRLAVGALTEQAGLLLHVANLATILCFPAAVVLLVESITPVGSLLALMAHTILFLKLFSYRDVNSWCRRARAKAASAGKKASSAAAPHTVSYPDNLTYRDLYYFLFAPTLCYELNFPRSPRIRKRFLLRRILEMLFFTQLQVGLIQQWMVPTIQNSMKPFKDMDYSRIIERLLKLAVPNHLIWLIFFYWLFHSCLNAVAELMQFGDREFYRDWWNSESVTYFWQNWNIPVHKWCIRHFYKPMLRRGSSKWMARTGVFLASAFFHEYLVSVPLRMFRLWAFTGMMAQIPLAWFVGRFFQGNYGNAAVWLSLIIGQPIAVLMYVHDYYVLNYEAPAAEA

[4] = Metabolic stability in human liver microsomes assessed as parent compound remaining at 1 uM and measured at 30 mins by LC-MS/MS analysis; format: ADME, Microsome; details: read-out: Stability
[5] = Metabolic stability in rat liver microsomes assessed as parent compound remaining at 1 uM and measured at 30 mins by LC-MS/MS analysis; format: ADME, Microsome; details: read-out: Stability
[6] = Plasma protein binding in rat; format: ADME, cell-free; details: read-out: PPB
[7] = Plasma protein binding in mouse; format: ADME, cell-free; details: read-out: PPB (converted)
hERG (KCNH2) = hERG (KCNH2) (Homo sapiens, UniProt Q12809); experiment: Displacement of [3H]astemizole from human ERG expressed in HEK293 cell membrane at 10 uM for 2 hrs by Radiometric displacement assay; format: toxicity; details: HEK293 cell membranes that express hERG, probe [3H]astemizole
Sequence of hERG (KCNH2) (Q12809 whole entry): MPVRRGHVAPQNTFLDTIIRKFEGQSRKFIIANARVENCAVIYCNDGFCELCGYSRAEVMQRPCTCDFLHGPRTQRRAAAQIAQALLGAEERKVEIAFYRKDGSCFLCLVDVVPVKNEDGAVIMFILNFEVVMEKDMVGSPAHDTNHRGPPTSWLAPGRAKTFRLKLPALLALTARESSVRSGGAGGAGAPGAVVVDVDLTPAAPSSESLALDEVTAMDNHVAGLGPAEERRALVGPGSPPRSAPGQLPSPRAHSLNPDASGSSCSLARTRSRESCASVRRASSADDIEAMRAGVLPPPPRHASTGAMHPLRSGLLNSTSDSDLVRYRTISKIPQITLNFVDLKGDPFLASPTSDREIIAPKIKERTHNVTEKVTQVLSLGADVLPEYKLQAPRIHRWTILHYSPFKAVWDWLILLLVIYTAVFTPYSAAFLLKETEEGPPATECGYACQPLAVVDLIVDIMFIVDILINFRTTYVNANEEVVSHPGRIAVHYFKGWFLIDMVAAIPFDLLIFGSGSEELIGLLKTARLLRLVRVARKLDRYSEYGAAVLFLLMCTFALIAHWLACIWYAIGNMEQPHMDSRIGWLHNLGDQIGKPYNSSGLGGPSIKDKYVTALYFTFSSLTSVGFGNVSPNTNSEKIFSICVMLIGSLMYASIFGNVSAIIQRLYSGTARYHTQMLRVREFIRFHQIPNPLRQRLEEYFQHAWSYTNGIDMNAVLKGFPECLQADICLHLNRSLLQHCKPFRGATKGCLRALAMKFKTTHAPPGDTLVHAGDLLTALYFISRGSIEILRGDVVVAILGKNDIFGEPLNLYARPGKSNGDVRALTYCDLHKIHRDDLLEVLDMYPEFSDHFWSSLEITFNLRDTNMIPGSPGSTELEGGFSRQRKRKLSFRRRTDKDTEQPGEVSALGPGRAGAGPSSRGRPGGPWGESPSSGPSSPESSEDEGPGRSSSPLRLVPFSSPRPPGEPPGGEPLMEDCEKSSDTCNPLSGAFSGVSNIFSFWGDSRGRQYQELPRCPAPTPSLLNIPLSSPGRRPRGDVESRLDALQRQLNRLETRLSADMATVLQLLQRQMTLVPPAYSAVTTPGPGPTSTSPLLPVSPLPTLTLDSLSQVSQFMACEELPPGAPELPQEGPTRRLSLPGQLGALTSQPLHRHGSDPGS

[8] = Metabolic stability in mouse liver microsomes assessed as parent compound remaining at 1 uM and measured at 30 mins by LC-MS/MS analysis; format: ADME, Microsome; details: read-out: Stability
[9] = molecular target: T2, Diacylglycerol O-acyltransferase 1; experiment: Inhibition of recombinant human DGAT1 expressed in Sf9 cell membrane assessed as inhibition of triglyceride synthesis incubated for 1 hrs by LC-MS-based mass spectrophotometric analysis; format: cell membranes

inhibition at 25 µM (CYP1A2): 18%
inhibition at 25 µM (CYP3A4): 16%
inhibition at 25 µM (CYP2C9): 24%
SMILES: O=C(Nc1ccc(C2CCC3(CC2)CC(C(=O)O)C3)cc1)c1nnc(Nc2ccc(F)c(F)c2)o1 (centres undefined)

SMILES: O=C(O)CC1CCC2(CC1)CCN(c1ccc(NC(=O)c3nnc(Nc4ccc(F)c(F)c4)o3)cn1)CC2
inhibition (Mus musculus [1]): Active
inhibition (Mus musculus [2]): Active

IC50 [3]: 14.6 nM
remaining at 0.5 h, 1 µM [4]: 100%
remaining at 0.5 h, 1 µM [5]: 96%
fraction unbound [6]: 0.01
fraction unbound [7]: < 0.01
remaining at 0.5 h, 1 µM [8]: 97%
SMILES: O=C(O)CC1CCC2(CC1)CCC(c1ccc(NC(=O)c3nnc(Nc4ccc(F)c(F)c4)o3)cc1)CC2 (stereo in doubt; 8)
inhibition at 2 h, 10 µM (hERG (KCNH2)): 18%

IC50 [3]: 23 nM
IC50 [9]: 75 nM
SMILES: O=C(O)CC1CCC2(CC1)CCC(c1ccc(NC(=O)c3nnc(Nc4ccc(F)c(F)c4)o3)cc1)CC2 (stereo in doubt; 8b)
